Literature values in patent US20200069618A1, “COMPOSITIONS HAVING AN AGENT AND AN ENHANCER THEREOF, METHODS OF USE, AND DELIVERY SYSTEMS” (priority 2018, published 2020).

Key:
rats [1] = details: intercerebroventricular administration
rats [2] = details: administration into the basal forebrain

CCCCC/C=C\C/C=C\C/C=C\C/C=C\CCCC(=O)NCCO [anandamide, Anandamide]
slow-wave sleep and REM sleep (rats [1]): increase slow-wave sleep and REM sleep
wakefulness (rats [1]): decrease wakefulness
levels of adenosine (rats [2]): increase levels of adenosine
